Key:
[1] = system: human tumor cell lines (DU-145, PC-3, IMR5-75, MDA-MB-435, SW-1736, NPA-87); test: Binding of 125I-DU-Sigi1 to human tumor cell lines
Description: (§1) The peptide DU-Sigi1 (FRPNRAQDYNTN) was prepared by chemical synthesis and labelled with ^125I. For in vitro studies, 200,000 cells (DU-145, human prostate tumor cell line; PC-3, human prostate cell line; HUVEC, human primary endothelial cells, IMR5-75, human neuroblastoma cell line, MDA-MB-435, human breast cancer cell line, SW-1736, human thyroid cancer cell line, NPA-87, human thyroid cancer cell line) were seeded into 6-well plates and cultivated for 24 hours. Then, the medium was replaced by fresh medium (without FCS) and for the plates with competitor, unlabelled peptide was added (10^-4 M) and preincubated for 30 min. Then, ^125I-labelled peptide was added to the cell culture (1-2 mio cpm/well) and incubated for 10 min. The cells were collected and washed for three times with 1 ml PBS per washing. Then, the cells were lysed with 0.3 M NaOH. Radioactivity of the lysed cells was determined with a gamma counter and radioactivity as percent applied dose per 1 million cells was calculated.

[2] = system: HUVEC, human primary endothelial cells; test: Binding of 125I-DU-Sigi1 to primary endothelial cells; details: ^125I-labelled peptide, 1-2 mio cpm/well, 10 min incubation
Description: as §1

[3] = system: DU-145 prostate tumor cells; test: Binding kinetics of 125I-DU-Sigi1 on DU-145 cells; design: species or system human
Description: The peptide DU-Sigi1 (FRPNRAQDYNTN) was prepared by chemical synthesis and labelled with ^125I. 200,000 DU-145 cells (human prostate tumor cell line) were seeded into 6-well plates and cultivated for 24 hours. Then, the medium was replaced by fresh medium (without FCS). ^125I-labelled peptide was added to the cell culture (1-2 mio cpm/well) and incubated for times from 1 min to 4 h. After the incubation time the cells were collected and washed for three times with 1 ml PBS per washing. Then, the cells were lysed with 0.3 M NaOH. Radioactivity of the lysed cells was determined with a gamma counter and radioactivity as percent applied dose per 1 million cells was calculated. It could be shown that the binding of DU-Sigi1 is rapid and the highest binding rate occurs after 5 min. Then the amount of bound peptide decreases and reaches a basal level of about 1.5 % applied dose/1 mio cells.

[4] = system: PC-3 cells (prostate tumor cell line); test: Binding kinetics of 125I-DU-Sigi1 on PC-3 cells; design: species or system human; details: data not shown
[5] = system: DU-145 prostate tumor cells; test: Competition assay of 125I-DU-Sigi1 with unlabeled competitor on DU-145 cells; format: binding, human; details: for inhibition of binding of ^125I-DU-Sigi1: 10 min at 37°C
Description: The peptide DU-Sigi1 (FRPNRAQDYNTN) was prepared by chemical synthesis and labeled with ^125I. 200,000 DU-145 cells (human prostate tumor cell line) were seeded into 6-well plates and cultivated for 24 hours. Then, the medium was replaced by fresh medium (without FCS). Different competitor concentrations (unlabeled DU-Sigi1) were added to the medium 30 min before the ^125I-labeled peptide was added to the wells (1-2 mio cpm/well) and incubated for 10 min at 37°C.[…], After the incubation time the cells were collected and washed for three times with 1 ml PBS per washing. Then, the cells were lysed with 0.3 M NaOH. Radioactivity of the lysed cells was determined with a gamma counter and radioactivity as percent applied dose per 1 million cells was calculated. […] The ID50 is approx. 50 µM.

[6] = system: PC-3 cells (prostate tumor cell line); test: Competition assay of 125I-DU-Sigi1 with unlabeled DU-Sigi1 on PC-3 cells; format: binding, human; details: data not shown
[7] = system: human prostate tumor (DU-145); test: Organ distribution of intravenously injected 131I-labeled DU-Sigi1 in tumor-bearing mice; format: in vivo, male nu/nu mice; details: i.v., 28 mio cpm/mouse, 15 min and 45 min postinjection
Description: The peptide DU-Sigi1 (FRPNRAQDYNTN) was prepared by chemical synthesis and labeled with ^131I. ^131I labeled peptide DU-Sigi1 (FRPNRAQDYNTN) (28 mio cpm/mouse) was intravenously injected into male nu/nu mice, which subcutaneously carried a human prostate tumor (DU-145). 15 min. and 45 min, respectively, postinjection the mice were sacrificed. The organs were removed, weighed and the radioactivity was determined with a gamma counter. […] The high blood volumn might be due to the degradation of the peptide by serum peptidases and proteases.

| Substance | binding of labelled peptide to tumor cells ([1]; ^125I-labelled peptide, 1-2 mio cpm/well, 10 min incubation) | competitive inhibition of binding ([1]; unlabelled peptide 10^-4 M, preincubated for 30 min) | binding of labelled peptide to primary endothelial cells [2] | basal level of bound peptide ([3]; after the binding maximum, incubation up to 4 h) | time of highest binding rate ([3]; incubation times from 1 min to 4 h) [min] | binding kinetics compared with DU-145 cells [4] | ID50 ([5]; unlabeled DU-Sigi1 as competitor of ^125I-DU-Sigi1) | inhibition of binding of ^125I-DU-Sigi1 ([5]; unlabeled DU-Sigi1 concentration 10^-4, added 30 min before) | inhibition of binding of ^125I-DU-Sigi1 ([5]; unlabeled DU-Sigi1 concentration 10^-5, added 30 min before) | competition compared with DU-145 cells [6] | accumulation in tumor versus other organs [7] | competition with ^125I-DU-Sigi1 binding ([5]; unlabeled competitor, same concentration, data not shown) |
| --- | --- | --- | --- | --- | --- | --- | --- | --- | --- | --- | --- | --- |
| FRPNRAQDYNTN [DU-Sigi1] | specifically binds to the various tumor cells | up to 95% | not the primary endothelial cells | about 1.5 % applied dose/1 mio cells | 5 | The same results were obtained | approx. 50 µM | more than 95% | more than 95% | The same results were obtained | accumulates in the tumor to a higher extent than in the other organs, with the exeption of the kidney |  |
| octreotide [reference compound] |  |  |  |  |  |  |  |  |  |  |  | No competition |

Reference: patent publication EP1531159B1, “Peptide useful for diagnosis and therapy of tumors” (Deutsches Krebsforschungszentrum Stiftung des öffentlichen …, priority 2003, dated 2005)
